Data from patent publication US12492230B2, “Antigenic peptides deriving from secretogranin V and uses thereof for the diagnosis and treatment of type 1 diabetes” (INSERM (Institut National de la Santé et de la Recherche …, priority 2018, dated 2025).
Where no end group is shown, it is not given here.

What was measured:
Format in all cases: cell-based, human
circulating CD8+ T cells [1] = assay: Ex vivo combinatorial HLA-A2 multimer (MMr) staining of PBMCs; conditions: for frequency of circulating MMr+ CD8+ T cells (in words): HLA-A2+ recent-onset T1D and healthy subjects; for median frequency in peripheral blood: T1D patients, fraction of CD8+ T cells
Experimental: All peptides were synthesized at >90% purity (Synpeptides). HLA-A2 MMrs were produced as described (Leisner et al., 2008) and staining performed in the presence of 50 nM dasatinib (Lissina et al., 2009), as described (Culina et al., 2018). Briefly, cryopreserved PBMCs were magnetically depleted of CD8^− cells (StemCell Technologies), stained with the combinatorial MMr panels (Hadrup et al., 2009) and acquired using a FACSAria III cytometer.

[2] = tested on: pancreas-infiltrating cells of HLA-A2+ T1D patients; assay: In-situ HLA-A2 MMr staining on pancreas sections; conditions: 2 HLA-A2+ T1D cases, nPOD tissue sections
Experimental: In-situ staining was performed as described (Culina et al., 2018). Unfixed, frozen sections were dried for 2 h, loaded with 1 μg of MMrs overnight at 4° C., washed gently with phosphate-buffered saline and fixed in 2% paraformaldehyde for 10 min. After a further wash, endogenous peroxidase activity was blocked with 0.3% H2O2. Sections were then incubated serially with rabbit anti-phycoerythrin, horseradish peroxidase-conjugated swine anti-rabbit and 3,3′-diaminobenzidine tetrahydrochloride substrate (ThermoFisher). After a final wash, sections were counterstained with hematoxylin, dehydrated via sequential passages in 95-100% ethanol and xylene, mounted and analyzed using a Nikon Eclipse Ni microscope with NIS-Elements Analysis D software v4.40.

circulating CD8+ T cells [3] = assay: Ex vivo HLA-A3 multimer (MMr) staining of PBMCs; conditions: for positive hits for the HLA-A3 restriction: HLA-A3+ T1D and healthy donors
Experimental: HLA-A3 MMrs were produced and used as described (Gonzalez-Duque, Cell Metab 2018). Each peptide-HLA-A3 complex was used at a final concentration of 8-27 nM and conjugated with fluorochrome-labeled streptavidin at a 1:4 ratio. The concentration of each fluorescent MMr was corrected for the variable staining index of each streptavidin, in order to obtain a distinct double-MMr+ population for each fluorochrome pair. Compensations were set using fluorescence-minus-one samples (i.e. omitting one streptavidin at a time).
PBMCs were thawed at 37° C. and immediately diluted in pre-warmed AIM-V medium. Following centrifugation and one additional wash in AIM-V, PBMCs were counted and rested in the presence of 50 nM dasatinib for 30 min at 37° C. to prevent internalization of T-cell receptors before magnetic depletion of CD8^− cells (StemCell Technologies). Staining was performed for 20 min at 20° C. in […] PBS-dasatinib for 10^7 cells with combinatorial double-coded MMr panels, followed, without washing, by CD3-APC-H7 (RRID AB_1645475), CD8-PE-Cy7 (AB_396852), CD45RA-FITC (AB_395879), CCR7-BV421 (AB_2728119) monoclonal antibodies and Live/Dead Aqua (ThermoFisher) staining at 4° C. for 20 min. After one wash, cells were acquired using a FACSAria III cytometer. […] Flow cytometry data were analyzed with FlowJo v10 and Graphpad Prism 7.0 software. Cells were sequentially gated on small lymphocytes, singlets, live cells (Live/Dead Aqua^−), CD3^+CD8^+ T cells and total PE^+, PE-CF594^+, APC^+, BV650^+, BV711^+ and BV786^+MMr^+ T cells. Using Boolean operators, these latter gates allowed to selectively visualize each double-MMr^+ population by including only those events positive for the corresponding fluorochrome pair. For example, SCG3166-174 MMr^+ cells (PE^+PE-CF594^+) were visualized by gating on events that were PE^+PE-CF594^+APC^−BV650^−BV711^−BV786^−. Events negative for all MMr fluorochromes (PE^−PE-CF594^−APC^−BV650^−BV711^−BV786^−) were represented in the same PE/PE-CF-594 dot plot to set the double-MMr^+ gate. CD45RA and CCR7 staining was subsequently visualized by gating on these MMr^+ cells.

[4] = HLA-A2+ healthy donors, screening

Substance	cognate naïve CD8+ T-cell repertoire (frequency 1-50/10^6 CD8+ T cells, clustered MMr staining, in ≥50% of individuals) (circulating CD8+ T cells [1]; [4])	positive hits for the HLA-A3 restriction (circulating CD8+ T cells [3])	other results
CHGA344-352: HLA-A2-restricted HLA-eluted β-cell peptide from chromogranin A, maps to the WE-14 neuropeptide (KMDQLAKEL)	validated		
FLSGAVNRL	validated		frequency of circulating MMr+ CD8+ T cells (in words) (circulating CD8+ T cells [1]): particularly high and clustered
IAPP15-17/IAPP5-10: peptide splice product from fusion of IAPP15-17 and IAPP5-10, HLA-A2-restricted (VALKLQVFL)			recognition by circulating CD8+ T cells, donors (circulating CD8+ T cells [1]; [4]): 1 of 6; median frequency in peripheral blood (circulating CD8+ T cells [1]): 1.6×10^−6; in-situ MMr staining of pancreas sections [2]: MMr^+ cells could be detected
ISL1276-284: HLA-A2-restricted HLA-eluted peptide from insulin gene enhancer protein ISL1 (GLQANPVEV)	validated		median frequency in peripheral blood (circulating CD8+ T cells [1]): 7.2×10^−6; in-situ MMr staining of pancreas sections [2]: MMr^+ cells could be detected
KCNK16129-137: HLA-A2-restricted HLA-eluted β-cell peptide from KCNK16 (ALLGIPLNV)	validated		
KIF1A860-868: HLA-A3-restricted islet peptide from KIF1A (LLYPVPLVH)		positive hits	
KIF1A1347-1355: HLA-A2-restricted HLA-eluted β-cell peptide from kinesin family member 1A (VLDTSVAYV)	validated		
PCSK230-38: HLA-A2-restricted HLA-eluted β-cell peptide from proprotein convertase 2 (FTNHFLVEL)	validated		
PNMA250-58: HLA-A3-restricted islet peptide candidate, not validated (RLLGKIFRK)			validation as CD8+ T-cell epitopes (circulating CD8+ T cells [3]; second validation round, PBMCs from T1D and healthy donors): single exception
PTPRN576-580/708-711: spliced peptide derived from the fusion of two non-contiguous IA-2 sequences, HLA-A3 (SVLLTRLAK)		identified	
RLKPSLVGK		positive hits	
SCG3166-174: HLA-A3-restricted islet peptide from secretogranin III (AVFDKIVSK)		positive hits	
UCN31-9: HLA-A2-restricted HLA-eluted β-cell peptide from urocortin-3 leader sequence (MLMPVHFLL)	validated		frequency of circulating MMr+ CD8+ T cells (in words) (circulating CD8+ T cells [1]): particularly high and clustered
UCN346-56: HLA-A3-restricted islet peptide from urocortin-3 (GQWEDASLLSK)		positive hits	
YLQGQRLDNV	validated		
ZnT8186-184: positive control islet peptide (VAANIVLTV; UniProt Q8IWU4 186-194, looked up, fragment) [reference compound]			in-situ MMr staining of pancreas sections [2]: observed
